Assay [1] addresses T1, HiBit-BRG1 fusion protein (Homo sapiens, UniProt P51532).
T1 construct: expressed in transfected cells
Description: HiBiT-BRG1 cell-based degradation assay (Nano-Glo HiBiT Lytic Detection, 24 h). The note with it: HeLa cell line expressing HiBit-BRG1 and LgBit; for Dmax: read-out: BRG1 HiBit Degradation Maximum (%); for DC50: read-out: BRMG1 HiBit Degradation IC50. An outline of the steps: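 HeLa cells stably expressing HiBiT-BRG1 plus LgBit, 5000/well, treated 24 h, then lysed with Nano-Glo HiBiT lytic reagent and luminescence read. % degradation normalised between DMSO (high control) and 2 μM reference BRM/BRG1 degrader (low control).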
A general note: The HiBiT peptide binds its large partner to form an active luciferase.

Another assay addresses T2, HiBit-BRM fusion protein (Homo sapiens, UniProt P51531).
T2 construct: expressed in transfected cells
As to the kind of experiment: HiBiT-BRM cell-based degradation assay (Nano-Glo HiBiT Lytic Detection, 24 h). The note with it: HeLa cell line expressing HiBiT-BRM; for DC50: read-out: BRM HiBit Degradation IC50. An outline of the steps:
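Stable HiBiT-BRM HeLa line; 24 h compound exposure, top final 30 μM, 3-fold, 10 pts in duplicate. Lytic HiBiT/LgBiT luminescence readout. % degradation vs DMSO (0%) and 2 μM known BRM/BRG1 degrader (100%).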

The structures appear in SMILES notation. Where only a bound is given, the exact number is not on record here.

T1 sequence (P51532 whole entry, the tested form may be a part): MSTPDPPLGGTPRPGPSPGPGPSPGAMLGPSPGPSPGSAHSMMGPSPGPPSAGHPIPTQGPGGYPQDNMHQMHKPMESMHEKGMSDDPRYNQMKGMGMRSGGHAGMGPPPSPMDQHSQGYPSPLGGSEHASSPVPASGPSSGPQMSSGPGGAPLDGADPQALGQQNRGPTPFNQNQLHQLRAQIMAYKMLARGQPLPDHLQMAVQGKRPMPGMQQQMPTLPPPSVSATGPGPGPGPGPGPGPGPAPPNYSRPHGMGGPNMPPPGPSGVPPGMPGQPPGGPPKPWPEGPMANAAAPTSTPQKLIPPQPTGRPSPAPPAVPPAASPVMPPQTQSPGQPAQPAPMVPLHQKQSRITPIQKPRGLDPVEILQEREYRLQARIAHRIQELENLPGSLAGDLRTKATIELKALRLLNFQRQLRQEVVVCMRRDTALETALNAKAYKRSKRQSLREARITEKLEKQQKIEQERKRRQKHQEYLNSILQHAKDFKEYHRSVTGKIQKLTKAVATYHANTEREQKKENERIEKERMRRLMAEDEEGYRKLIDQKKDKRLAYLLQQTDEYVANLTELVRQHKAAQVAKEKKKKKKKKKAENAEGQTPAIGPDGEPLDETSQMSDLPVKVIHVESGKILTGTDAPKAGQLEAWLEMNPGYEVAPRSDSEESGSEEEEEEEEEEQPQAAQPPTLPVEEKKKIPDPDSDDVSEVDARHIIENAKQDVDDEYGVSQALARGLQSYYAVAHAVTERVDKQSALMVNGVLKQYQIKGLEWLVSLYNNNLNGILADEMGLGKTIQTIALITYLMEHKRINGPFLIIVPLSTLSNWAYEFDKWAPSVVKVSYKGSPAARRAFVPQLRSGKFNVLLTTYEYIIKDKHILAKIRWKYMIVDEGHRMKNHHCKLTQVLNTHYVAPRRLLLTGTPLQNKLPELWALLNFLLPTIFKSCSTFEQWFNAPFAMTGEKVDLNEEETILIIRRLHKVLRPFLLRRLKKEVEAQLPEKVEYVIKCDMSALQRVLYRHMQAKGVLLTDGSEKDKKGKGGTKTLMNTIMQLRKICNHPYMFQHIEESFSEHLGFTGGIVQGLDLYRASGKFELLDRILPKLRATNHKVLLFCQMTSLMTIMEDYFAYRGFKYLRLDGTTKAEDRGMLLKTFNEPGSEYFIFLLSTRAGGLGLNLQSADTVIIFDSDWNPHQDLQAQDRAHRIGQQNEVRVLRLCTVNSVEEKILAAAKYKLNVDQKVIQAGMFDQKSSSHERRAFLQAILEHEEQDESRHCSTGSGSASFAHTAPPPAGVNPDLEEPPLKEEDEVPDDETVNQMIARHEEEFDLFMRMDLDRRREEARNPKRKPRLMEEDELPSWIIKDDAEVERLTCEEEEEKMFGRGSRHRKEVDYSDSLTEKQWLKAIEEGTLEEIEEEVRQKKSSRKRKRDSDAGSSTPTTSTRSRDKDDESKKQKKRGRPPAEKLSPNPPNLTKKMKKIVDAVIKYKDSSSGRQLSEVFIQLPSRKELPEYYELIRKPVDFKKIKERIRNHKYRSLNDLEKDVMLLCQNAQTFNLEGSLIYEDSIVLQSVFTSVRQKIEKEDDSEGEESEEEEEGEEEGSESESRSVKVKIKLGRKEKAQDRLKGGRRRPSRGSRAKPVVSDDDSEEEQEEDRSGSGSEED
T2 sequence (P51531 whole entry, the tested form may be a part): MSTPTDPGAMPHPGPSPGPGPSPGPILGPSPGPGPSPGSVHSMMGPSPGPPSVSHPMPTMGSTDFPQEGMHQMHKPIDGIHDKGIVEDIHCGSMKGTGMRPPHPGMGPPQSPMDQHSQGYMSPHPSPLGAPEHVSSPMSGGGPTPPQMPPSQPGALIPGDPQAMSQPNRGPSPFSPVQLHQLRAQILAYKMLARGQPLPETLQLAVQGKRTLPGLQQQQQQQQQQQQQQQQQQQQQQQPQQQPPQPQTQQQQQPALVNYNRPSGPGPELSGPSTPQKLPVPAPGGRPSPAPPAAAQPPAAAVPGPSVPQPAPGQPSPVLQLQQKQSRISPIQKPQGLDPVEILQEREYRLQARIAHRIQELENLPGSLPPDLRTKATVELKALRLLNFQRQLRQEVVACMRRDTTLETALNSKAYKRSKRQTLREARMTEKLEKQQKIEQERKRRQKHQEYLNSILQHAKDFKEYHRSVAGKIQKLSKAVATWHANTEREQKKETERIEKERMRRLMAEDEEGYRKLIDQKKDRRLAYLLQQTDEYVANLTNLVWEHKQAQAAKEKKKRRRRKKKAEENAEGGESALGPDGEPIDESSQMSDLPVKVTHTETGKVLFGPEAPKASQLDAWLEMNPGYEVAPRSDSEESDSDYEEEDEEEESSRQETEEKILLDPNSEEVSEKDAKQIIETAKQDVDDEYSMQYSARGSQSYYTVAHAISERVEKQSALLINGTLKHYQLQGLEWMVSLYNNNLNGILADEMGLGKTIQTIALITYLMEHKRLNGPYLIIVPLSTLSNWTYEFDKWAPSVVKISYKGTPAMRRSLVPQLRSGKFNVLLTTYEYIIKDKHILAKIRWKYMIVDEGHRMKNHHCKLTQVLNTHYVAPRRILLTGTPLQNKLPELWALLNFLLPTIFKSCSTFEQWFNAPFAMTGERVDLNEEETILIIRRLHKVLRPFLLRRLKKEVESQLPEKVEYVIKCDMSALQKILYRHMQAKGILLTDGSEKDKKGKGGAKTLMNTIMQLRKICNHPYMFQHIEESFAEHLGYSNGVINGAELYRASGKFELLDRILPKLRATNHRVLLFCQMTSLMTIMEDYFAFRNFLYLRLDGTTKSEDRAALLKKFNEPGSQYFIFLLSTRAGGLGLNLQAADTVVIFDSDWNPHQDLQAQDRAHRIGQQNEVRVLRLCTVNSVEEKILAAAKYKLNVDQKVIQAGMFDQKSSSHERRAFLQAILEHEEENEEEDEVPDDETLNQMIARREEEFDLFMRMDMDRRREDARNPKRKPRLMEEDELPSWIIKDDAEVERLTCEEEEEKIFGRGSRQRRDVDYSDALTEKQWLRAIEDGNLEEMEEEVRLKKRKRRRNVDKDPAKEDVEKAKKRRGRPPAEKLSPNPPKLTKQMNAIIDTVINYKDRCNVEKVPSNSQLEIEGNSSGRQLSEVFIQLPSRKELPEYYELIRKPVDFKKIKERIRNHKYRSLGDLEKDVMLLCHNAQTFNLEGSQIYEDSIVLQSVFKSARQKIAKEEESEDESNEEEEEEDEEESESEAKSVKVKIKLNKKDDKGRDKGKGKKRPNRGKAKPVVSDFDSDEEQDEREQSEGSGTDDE

On to `Cc1ncsc1-c1ccc([C@H](C)NC(=O)[C@@H]2C[C@@H](O)CN2C(=O)[C@@H](c2cc(OCCN(C)CCC(=O)N3CC(c4cc5cc(-c6ccccc6O)nnc5[nH]4)C3)no2)C(C)C)cc1` (racemic) [Compound 64, (2S,4R)-4-hydroxy-1-((R)-2-(3-(2-((3-(3-(3-(2-hydroxyphenyl)-7H-pyrrolo[2,3-c]pyridazin-6-yl)azetidin-1-yl)-3-oxopropyl)(methyl)amino)ethoxy)isoxazol-5-yl)-3-methylbutanoyl)-N-((S)-1-(4-(4-methylthiazol-5-yl)phenyl)ethyl)pyrrolidine-2-carboxamide], for which, in assay [1], the Dmax is below 50%. Further, on HiBit-BRM fusion protein, the “BRM HiBit Degradation Maximum (%)” value is “B (“B” indicates maximum degradation ≥ 50%)” and the DC50 is above 100 nM.
As to `Cc1ncsc1-c1ccc([C@H](C)NC(=O)[C@@H]2C[C@@H](O)CN2C(=O)[C@@H](c2cc(OCCN3CC(c4[nH]c5nnc(-c6cccc(F)c6O)cc5c4C)C3)no2)C(C)C)cc1` (racemic) [Compound 127, (2S,4R)-1-((R)-2-(3-(2-(3-(3-(3-fluoro-2-hydroxyphenyl)-5-methyl-7H-pyrrolo[2,3-c]pyridazin-6-yl)azetidin-1-yl)ethoxy)isoxazol-5-yl)-3-methylbutanoyl)-4-hydroxy-N-((S)-1-(4-(4-methylthiazol-5-yl)phenyl)ethyl)pyrrolidine-2-carboxamide], the Dmax in assay [1] is below 50%. For the same compound, at HiBit-BRM fusion protein, the “BRM HiBit Degradation Maximum (%)” value is “A (“A” indicates maximum degradation ≥ 75%)” and the DC50 was above 10 nM.
The matching figures for `Cc1ncsc1-c1ccc([C@H](C)NC(=O)[C@@H]2C[C@@H](O)CN2C(=O)[C@@H](c2cc(OCCN3CC(c4c(C)[nH]c5nnc(-c6ccccc6O)cc45)C3)no2)C(C)C)cc1` (racemic) [Compound 254, (2S,4R)-4-hydroxy-1-((R)-2-(3-(2-(3-(3-(2-hydroxyphenyl)-6-methyl-7H-pyrrolo[2,3-c]pyridazin-5-yl)azetidin-1-yl)ethoxy)isoxazol-5-yl)-3-methylbutanoyl)-N-((S)-1-(4-(4-methylthiazol-5-yl)phenyl)ethyl)pyrrolidine-2-carboxamide]: below 50%, “A (“A” indicates maximum degradation ≥ 75%)” and above 10 nM.
For `Cc1ncsc1-c1ccc([C@H](C)NC(=O)[C@@H]2C[C@@H](O)CN2C(=O)[C@@H](c2cc(N3CCN(C(=O)C(=O)N4CC(c5c[nH]c6nnc(-c7ccccc7O)cc56)C4)CC3)no2)C(C)C)cc1` (racemic) [Compound 267, (2S,4R)-4-hydroxy-1-((R)-2-(3-(4-(2-(3-(3-(2-hydroxyphenyl)-7H-pyrrolo[2,3-c]pyridazin-5-yl)azetidin-1-yl)-2-oxoacetyl)piperazin-1-yl)isoxazol-5-yl)-3-methylbutanoyl)-N-((S)-1-(4-(4-methylthiazol-5-yl)phenyl)ethyl)pyrrolidine-2-carboxamide], in that order: below 50%, “A (“A” indicates maximum degradation ≥ 75%)” and above 100 nM.
For `Cc1ncsc1-c1ccc([C@H](C)NC(=O)[C@@H]2C[C@@H](O)CN2C(=O)[C@@H](c2cc(N3C[C@@H]4C[C@H]3CN4C(=O)[C@H]3C[C@]4(Cc5cc(-c6ccccc6O)nnc5N4)C3)no2)C(C)C)cc1` (racemic) [Compound 78, (2S,4R)-4-hydroxy-1-((R)-2-(3-((1S,4S)-5-((1R,3r)-3′-(2-hydroxyphenyl)-5′,7′-dihydrospiro[cyclobutane-1,6′-pyrrolo[2,3-c]pyridazine]-3-carbonyl)-2,5-diazabicyclo[2.2.1]heptan-2-yl)isoxazol-5-yl)-3-methylbutanoyl)-N-((S)-1-(4-(4-methylthiazol-5-yl)phenyl)ethyl)pyrrolidine-2-carboxamide], in that order: below 50%, “A (“A” indicates maximum degradation ≥ 75%)” and above 100 nM.
Regarding `Cc1ncsc1-c1ccc([C@H](C)NC(=O)[C@@H]2C[C@@H](O)CN2C(=O)[C@@H](c2cc(OCCN3CCC[C@H](c4c[nH]c5nnc(-c6ccccc6O)cc45)C3)no2)C(C)C)cc1` (racemic) [Compound 291, (2S,4R)-4-hydroxy-1-((R)-2-(3-(2-((R)-3-(3-(2-hydroxyphenyl)-7H-pyrrolo[2,3-c]pyridazin-5-yl)piperidin-1-yl)ethoxy)isoxazol-5-yl)-3-methylbutanoyl)-N-((S)-1-(4-(4-methylthiazol-5-yl)phenyl)ethyl)pyrrolidine-2-carboxamide], the Dmax in assay [1] is below 50%. Further, on HiBit-BRM fusion protein, the “BRM HiBit Degradation Maximum (%)” value is listed as “B (“B” indicates maximum degradation ≥ 50%)” and the DC50 is above 10 nM.
As to `Cc1ncsc1-c1ccc([C@H](C)NC(=O)[C@@H]2C[C@@H](O)CN2C(=O)[C@@H](c2cc([C@H]3CC[C@H](c4cnc(N5CCC(c6c[nH]c7nnc(-c8ccccc8O)cc67)CC5)nc4)CC3)no2)C(C)C)cc1` (racemic) [Compound 67, (2S,4R)-4-hydroxy-N-[(1S)-1-[4-(4-methyl-1,3-thiazol-5-yl)phenyl]ethyl]-1-[(2R)-3-methyl-2-{3-[(1r,4r)-4-(2-{4-[3-(2-hydroxyphenyl)-7H-pyrrolo[2,3-c]pyridazin-5-yl]piperidin-1-yl}pyrimidin-5-yl)cyclohexyl]-1,2-oxazol-5-yl}butanoyl]pyrrolidine-2-carboxamide], in assay [1], the Dmax is above 75% and the DC50 is above 10 nM. Also, at HiBit-BRM fusion protein, the “BRM HiBit Degradation Maximum (%)” value is “A (“A” indicates maximum degradation ≥ 75%)” and the DC50 is below 10 nM.
Regarding `Cc1ncsc1-c1ccc([C@H](C)NC(=O)[C@@H]2C[C@@H](O)CN2C(=O)[C@@H](c2cc(OCCN3CC4(Cc5cc(-c6ccccc6O)nnc5N4)C3)no2)C(C)C)cc1` (racemic) [Compound 186, (2S,4R)-4-hydroxy-1-((R)-2-(3-(2-(3′-(2-hydroxyphenyl)-5′,7′-dihydrospiro[azetidine-3,6′-pyrrolo[2,3-c]pyridazin]-1-yl)ethoxy)isoxazol-5-yl)-3-methylbutanoyl)-N-((S)-1-(4-(4-methylthiazol-5-yl)phenyl)ethyl)pyrrolidine-2-carboxamide], in assay [1], the Dmax was above 75% and the DC50 is above 100 nM. At HiBit-BRM fusion protein, the “BRM HiBit Degradation Maximum (%)” value is recorded as “A (“A” indicates maximum degradation ≥ 75%)” and the DC50 is above 10 nM.
With `Cc1ncsc1-c1ccc([C@H](C)NC(=O)[C@@H]2C[C@@H](O)CN2C(=O)[C@@H](c2cc(OCC(=O)N(C)[C@H]3CCc4[nH]c5nnc(-c6ccccc6O)cc5c4C3)no2)C(C)C)cc1` [Compound 106, (2S,4R)-4-hydroxy-1-((R)-2-(3-(2-(((S)-3-(2-hydroxyphenyl)-6,7,8,9-tetrahydro-5H-pyridazino[3,4-b]indol-6-yl)(methyl)amino)-2-oxoethoxy)isoxazol-5-yl)-3-methylbutanoyl)-N-((S)-1-(4-(4-methylthiazol-5-yl)phenyl)ethyl)pyrrolidine-2-carboxamide], in assay [1], the Dmax was below 50%. For the same compound, on HiBit-BRM fusion protein, the “BRM HiBit Degradation Maximum (%)” value is “A (“A” indicates maximum degradation ≥ 75%)” and the DC50 was above 10 nM.
As for `Cc1ncsc1-c1ccc([C@H](C)NC(=O)[C@@H]2C[C@@H](O)CN2C(=O)[C@@H](c2cc(OCCN3CC(CCCc4cc5cc(-c6ccccc6O)nnc5[nH]4)C3)no2)C(C)C)cc1` (racemic) [Compound 243, (2S,4R)-4-hydroxy-1-[(2R)-2-{3-[2-(3-{3-[3-(2-hydroxyphenyl)-7H-pyrrolo[2,3-c]pyridazin-6-yl]propyl}azetidin-1-yl)ethoxy]-1,2-oxazol-5-yl}-3-methylbutanoyl]-N-[(1S)-1-[4-(4-methyl-1,3-thiazol-5-yl)phenyl]ethyl]pyrrolidine-2-carboxamide], in assay [1], the Dmax was above 50% and the DC50 was above 1000 nM. For the same compound, on HiBit-BRM fusion protein, the “BRM HiBit Degradation Maximum (%)” value was “A (“A” indicates maximum degradation ≥ 75%)” and the DC50 is above 100 nM.
Turning to `Cc1ncsc1-c1ccc([C@H](C)NC(=O)[C@@H]2C[C@@H](O)CN2C(=O)[C@@H](c2cc(C3CCN(C(=O)CN4CC(c5cc6cc(-c7ccccc7O)nnc6[nH]5)C4)CC3)no2)C(C)C)cc1` (single isomer, unassigned) [Compound 179], the Dmax in assay [1] was below 50%. On HiBit-BRM fusion protein, the “BRM HiBit Degradation Maximum (%)” value was “A (“A” indicates maximum degradation ≥ 75%)” and the DC50 is above 100 nM.
For the compound `Cc1ncsc1-c1ccc([C@H](C)NC(=O)[C@@H]2C[C@@H](O)CN2C(=O)[C@@H](c2cc(OCCNC34CC(c5cc6cc(-c7ccccc7O)nnc6[nH]5)(C3)C4)no2)C(C)C)cc1` (racemic) [Compound 53, (2S,4R)-4-hydroxy-1-((R)-2-(3-(2-((3-(3-(2-hydroxyphenyl)-7H-pyrrolo[2,3-c]pyridazin-6-yl)bicyclo[1.1.1]pentan-1-yl)amino)ethoxy)isoxazol-5-yl)-3-methylbutanoyl)-N-((S)-1-(4-(4-methylthiazol-5-yl)phenyl)ethyl)pyrrolidine-2-carboxamide], in assay [1], the Dmax is above 75% and the DC50 is above 10 nM. Also, at HiBit-BRM fusion protein, the “BRM HiBit Degradation Maximum (%)” value is “A (“A” indicates maximum degradation ≥ 75%)” and the DC50 was above 10 nM.

Source of the values: patent publication US20240024488A1, “COMPOUNDS AND USES THEREOF” (Foghorn Therapeutics Inc., priority 2020, published 2024).
